Consider eleven compounds from US12528761B2, “Thyromimetics” (Autobahn Therapeutics, Inc., priority 2020, dated 2026).

Structures are written as SMILES. Where only a bound is given, the exact number is not on record here.

Experiment [1] has as its target T1, TRα (Homo sapiens, UniProt P10827).
T1 construct: expressed in transfected cells; host or cells: HEK293
T1 sequence (P10827 1-410 isoform P10827-2): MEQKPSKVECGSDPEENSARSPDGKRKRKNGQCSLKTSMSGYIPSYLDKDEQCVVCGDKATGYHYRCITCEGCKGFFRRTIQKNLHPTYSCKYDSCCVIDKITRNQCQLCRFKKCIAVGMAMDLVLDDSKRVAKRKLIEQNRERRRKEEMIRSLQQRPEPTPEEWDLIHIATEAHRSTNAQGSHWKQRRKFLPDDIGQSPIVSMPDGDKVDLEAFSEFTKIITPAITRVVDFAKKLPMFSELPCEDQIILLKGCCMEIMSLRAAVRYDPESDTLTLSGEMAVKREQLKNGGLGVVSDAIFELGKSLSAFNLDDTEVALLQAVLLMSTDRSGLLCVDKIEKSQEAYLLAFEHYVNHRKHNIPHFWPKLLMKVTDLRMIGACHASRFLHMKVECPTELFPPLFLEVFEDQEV
The experiment can be described thus: TR reporter-gene assay (Gal4 DBD hybrid, luciferase), TRα. Format: cell-based. The settings on record: HEK293-derived reporter cells, 24 hr treatment; read-out: TRα EC50. On the procedure:
(§1) Compounds were tested for thyroid-hormone receptor activity using TR reporter-gene assays. Reporter cells used in the assays express a TR-receptor hybrid (either TRα or TRβ) in which the native N-terminal DNA binding domain (DBD) has been replaced with that of the yeast Gal4 DBD. The reporter gene, firefly luciferase, is functionally linked to the Gal4 upstream activation sequence (UAS). Both cell lines were derived from human embryonic kidney (HEK293).
(§2) Step 1: A suspension of reporter cells was prepared in cell recovery medium containing 10% charcoal-stripped FBS, and dispensed into assay plates. The plates were pre-incubated for 6 hours in a cell culture incubator (37° C./5% CO2/85% humidity).
(§3) These intermediate stocks were subsequently diluted directly into compound screening medium containing 10% charcoal-stripped FBS to generate “2×-concentration” treatment media (containing 0.2, 0.4 or 0.8% DMSO).
(§4) Step 3: At the end of the pre-incubation period, culture media were discarded from the assay plates, and all wells received 100 μl of compound screening medium. 100 μl of each of the previously prepared “2×-concentration” treatment media were dispensed into duplicate assay wells, thereby achieving the desired final treatment concentrations. The final concentration of DMSO in all assay wells was 0.1, 0.2 or 0.4%. Assay plates were incubated for 24 hr in a cell culture incubator (37° C./5% CO2/85% humidity).
(§5) Step 4: At the 24 h assay endpoint, treatment media were discarded and 100 µl/well of luciferase detection reagent was added. Relative luminometer units (RLUs) were quantified from each assay well.

Experiment [2] deals with T2, TRβ (Homo sapiens, UniProt P10828).
T2 construct: expressed in transfected cells; host or cells: HEK293
T2 sequence (P10828 217-461 limits assumed): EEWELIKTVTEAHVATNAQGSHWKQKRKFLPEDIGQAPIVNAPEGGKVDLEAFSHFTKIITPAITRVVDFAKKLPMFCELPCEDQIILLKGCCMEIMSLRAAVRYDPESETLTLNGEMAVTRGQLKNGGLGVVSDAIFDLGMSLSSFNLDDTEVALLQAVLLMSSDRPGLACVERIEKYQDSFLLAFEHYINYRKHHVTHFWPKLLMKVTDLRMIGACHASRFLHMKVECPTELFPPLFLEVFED
Description: TR reporter-gene assay (Gal4 DBD hybrid, luciferase), TRβ. It counts as cell-based. The settings on record: for EC50: HEK293-derived reporter cells, 24 hr treatment, read-out: TRβ EC50; for T3-SI (selectivity index, EC50 (TRα)/EC50 (TRβ)): class symbols. The method, then:
as §1, §2, §3, §4, §5

As a reminder, the EC50 is the concentration at which the effect is half-maximal. As to `CC(C)c1c(O)ccc(Cc2c(Cl)cc(NCC(=O)O)cc2Cl)c1F` [Compound 46, (3,5-dichloro-4-(2-fluoro-4-hydroxy-3-isopropylbenzyl)phenyl)glycine], the concentration for a half-maximal effect (EC50) in experiment [1] was in the range of 0.01 to 0.1 µM. For the same compound, in experiment [2], the concentration for a half-maximal effect (EC50) is less than 0.01 µM and the “T3-SI (selectivity index, EC50 (TRα)/EC50 (TRβ))” value was “++ (3× < T3-SI ≤ 30×)”.

With `CC(c1ccc(F)cc1)c1c(O)ccc(Cc2c(Cl)cc(NCC(=O)O)cc2Cl)c1F` (stereo not drawn) [Compound 50, (3,5-dichloro-4-(2-fluoro-3-(1-(4-fluorophenyl)ethyl)-4-hydroxybenzyl)phenyl) glycine], in experiment [1], the concentration for a half-maximal effect (EC50) was in the range of 0.01 to 0.1 µM. In experiment [2], the concentration giving a half-maximal response (EC50) is less than 0.01 µM and the “T3-SI (selectivity index, EC50 (TRα)/EC50 (TRβ))” value was “++ (3× < T3-SI ≤ 30×)”.

In the case of `CC(C)c1c(O)ccc(Cc2c(Cl)cc(OCCCC(=O)O)cc2Cl)c1F` [Compound 52, 4-(3,5-dichloro-4-(2-fluoro-4-hydroxy-3-isopropylbenzyl)phenoxy)butanoic acid], the EC50 in experiment [1] lay in the range of 0.1 to 1 µM. Further, in experiment [2], the 50% effective concentration (EC50) lay in the range of 0.1 to 1 µM and the “T3-SI (selectivity index, EC50 (TRα)/EC50 (TRβ))” value was “+ (T3-SI ≤ 3×)”.

Regarding `CC(C)c1c(O)ccc(Cc2c(Cl)cc(OCCCCC(=O)O)cc2Cl)c1F` [Compound 54, 5-(3,5-dichloro-4-(2-fluoro-4-hydroxy-3-isopropylbenzyl)phenoxy)pentanoic acid], the 50% effective concentration (EC50) in experiment [1] lay within 0.01 to 0.1 µM. Also, in experiment [2], the 50% effective concentration (EC50) was in the range of 0.01 to 0.1 µM and the “T3-SI (selectivity index, EC50 (TRα)/EC50 (TRβ))” value was “+ (T3-SI ≤ 3×)”.

Consider `CC(c1ccc(F)cc1)c1c(O)ccc(Cc2c(Cl)cc(NC(=O)CC(=O)O)cc2Cl)c1F` (stereo not drawn) [Compound 56, 3-((3,5-dichloro-4-(2-fluoro-3-(1-(4-fluorophenyl)ethyl)-4-hydroxybenzyl)phenyl)amino)-3-oxopropanoic acid], for which the figures for the EC50 in experiment [1] and in experiment [2] were 0.1 to 1 µM and 0.01 to 0.1 µM, respectively. Also, the “T3-SI (selectivity index, EC50 (TRα)/EC50 (TRβ))” value in experiment [2] was “++ (3× < T3-SI ≤ 30×)”.

In the case of `CC(Oc1cc(Cl)c(Cc2ccc(O)c(C(C)C)c2F)c(Cl)c1)C(=O)O` (stereo not drawn) [Compound 58, 2-(3,5-dichloro-4-(2-fluoro-4-hydroxy-3-isopropylbenzyl)phenoxy)propanoic acid], the EC50 in experiment [1] lay in the range of 0.1 to 1 µM; in experiment [2] it was 0.01 to 0.1 µM. In experiment [2], the “T3-SI (selectivity index, EC50 (TRα)/EC50 (TRβ))” value was “++ (3× < T3-SI ≤ 30×)”.

As for `CC(C)c1c(O)ccc(Cc2c(Cl)cc(C(C)C(=O)O)cc2Cl)c1F` (stereo not drawn) [Compound 60, 2-(3,5-dichloro-4-(2-fluoro-4-hydroxy-3-isopropylbenzyl)phenyl)propanoic acid], the concentration for a half-maximal effect (EC50) in experiment [1] and in experiment [2] was 0.1 to 1 µM each time. For the same compound, in experiment [2], the “T3-SI (selectivity index, EC50 (TRα)/EC50 (TRβ))” value is “++ (3× < T3-SI ≤ 30×)”.

Consider `CC(C)c1c(O)ccc(Cc2c(Cl)cc(C(=O)O)cc2Cl)c1F` [Compound 61, 3,5-dichloro-4-(2-fluoro-4-hydroxy-3-isopropylbenzyl)benzoic acid], for which the EC50 in experiment [1] was greater than 1 µM. Also, in experiment [2], the EC50 was greater than 1 µM and the “T3-SI (selectivity index, EC50 (TRα)/EC50 (TRβ))” value was “++ (3× < T3-SI ≤ 30×)”.

Consider `CC(C)c1cc(Cc2c(Cl)cc(CCC(=O)O)c(F)c2Cl)ccc1O` [Compound 65, 3-(3,5-dichloro-2-fluoro-4-(4-hydroxy-3-isopropylbenzyl)phenyl)propanoic acid], for which, in experiment [1], the EC50 lay in the range of 0.01 to 0.1 µM. In addition, in experiment [2], the EC50 fell in the range of 0.01 to 0.1 µM and the “T3-SI (selectivity index, EC50 (TRα)/EC50 (TRβ))” value was “++ (3× < T3-SI ≤ 30×)”.

Take `CC(C)c1c(O)ccc(Cc2c(Cl)cc(CC(=O)O)c(F)c2Cl)c1F` [Compound 69, 2-(3,5-dichloro-2-fluoro-4-(2-fluoro-4-hydroxy-3-isopropylbenzyl)phenyl)acetic acid]: the EC50 in experiment [1] lay in the range of 0.01 to 0.1 µM. For the same compound, in experiment [2], the half-maximal effective concentration (EC50) was less than 0.01 µM and the “T3-SI (selectivity index, EC50 (TRα)/EC50 (TRβ))” value is “++ (3× < T3-SI ≤ 30×)”.

`CC(C)c1c(O)ccc(Cc2c(Cl)cc(CCC(=O)O)c(F)c2Cl)c1F` [Compound 71, 3-(3,5-dichloro-2-fluoro-4-(2-fluoro-4-hydroxy-3-isopropylbenzyl)phenyl)propanoic acid]: the EC50 in experiment [1] and in experiment [2] was 0.01 to 0.1 µM throughout. In addition, the “T3-SI (selectivity index, EC50 (TRα)/EC50 (TRβ))” value in experiment [2] is “++ (3× < T3-SI ≤ 30×)”.
